Earlier results as cited in patent US10294264B2, “Oxysterol-therapeutic agent derivative for bone healing” (Warsaw Orthopedic, Inc., priority 2017, dated 2019).
Read-outs that look alike come from different tables or passages of the source.

Experiments:
[1] = test system: spine fusion model; details: rabbit spine fusion model
[2] = test system: osteoprogenitor cells; details: in vitro
[3] = test system: spine fusion model; details: rat spine fusion model
[4] = test system: Mesenchymal stem cells; details: mesenchymal stem cells treated with compound

Compound: CCCCCC[C@](C)(O)[C@H]1CC[C@H]2[C@@H]3C[C@H](O)[C@H]4C[C@@H](O)CC[C@]4(C)[C@H]3CC[C@@]21C [OXY133, (3S,5S,6S,8R,9S,10R,13S,14S,17S)-17-((S)-2-hydroxyoctan-2-yl)-10,13-dimethylhexadecahydro-1H-cyclopenta[a]phenanthrene-3,6-diol]
- bone formation in vivo [1]: robust bone formation
- osteogenic differentiation of osteoprogenitor cells [2]: induces osteogenic differentiation
- bone formation in vivo [3]: robust bone formation
- osteoblast differentiation [4]: increased osteoblast differentiation
